Data taken from US20070213291A1, “Therapeutically useful synthetic oligonucleotides” (priority 1999, published 2007).
Where “and” joins values, the source holds several entries; their conditions need not be identical. Equal entries are not always repeated.

Assays:
[1] = test system: Jurkat human leukemia T cells; assay: Apoptosis by phosphatidylserine/annexin V-FITC flow cytometry; type: cell-based; settings: M. phlei murA derived sequences
Description: The redistribution of phosphatidylserine in the plasma membrane during apoptosis was measured by flow cytometry using FITC-conjugated annexin V (BD Pharmingen, San Diego, Calif.). NuMA release into the supernatant was determined using a commercial ELISA kit (Oncogen/Calbiochem, Cambridge, Mass.).
Jurkat human leukemia T cells were incubated with 50 μM of 3, 4, 5, 6 and 7 GT base sequences, a 5 base ACGT sequence, 6 base AG, GG, AGT and CGT sequences and a 7 base GG sequence. […]
Jurkat human leukemia T cells were incubated with GT-rich or AC-rich sequences derived from the murA gene of Mycobacterium phlei (GenBank: Accession Number X99776). Inhibition of proliferation was measured by the reduction of MTT as in Example 3, cell cycle arrest was detected by flow cytometry using propidium iodide as in Example 21 and apoptosis was evaluated by flow cytometry using annexin-V-FITC as in Example 23.

caspase 3 [2] = assay: Caspase 3 activation, colorimetric (p-nitroanilide peptide cleavage); type: cell-based, human; settings: Jurkat, 72 h, 100 μg/ml
Description: (§1) To determine caspase activation, control and treated cells are washed, fixed, permeabilized and incubated with an FITC-conjugated antibody that recognizes the active form of the caspase (Pharmingen, San Diego, Calif.) using the conditions recommended by the manufacturer. Fluorescence associated with active caspase 3 is analyzed by flow cytometry on a FACSCALIBUR using the program CellQUEST (Becton Dickinson). Alternatively, caspase activation is determined colorimetrically using an assay based on the cleavage of a caspase-specific peptide conjugated to the color reporter molecule p-nitroanilide, which can be quantitated spectrophotometrically at a wavelength of 405 nm.
(§2) Jurkat T cell leukemia cells were incubated for 72 h with 33 base GT SEQ ID NO:66; 11 base GT SEQ ID NO:81 (bases 1-11 of GT SEQ ID NO:66), 11 base GT SEQ ID NO:82 (bases 12-22 of GT SEQ ID NO:66), 11 base GT SEQ ID NO:83 (bases 23-33 of GT SEQ ID NO:66) and 15 base ACG SEQ ID NO:67. Active caspase 3 (17-22 kDa) was determined using FITC conjugated antibody (Clone: C92-605) as in Example 28.
Caspase 3 activation also was determined colorimetrically as in Example 28.
Jurkat T cell leukemia cells were incubated for 72 h with 6 base GT SEQ ID NO:25. Caspase 3 activation was determined colorimetrically as in Example 28.

[3] = test system: Jurkat human leukemia T cells; assay: Inhibition of Jurkat human leukemia T cell proliferation (MTT reduction); type: cell-based; settings: for % INHIBITION of Jurkat human leukemia T cell proliferation: 100 μg/ml sequence, 48 h, 2.5×10^5 cells/ml; for proliferation, cell cycle arrest and apoptosis of Jurkat T cells (summary in words): M. phlei murA derived sequences
How it was run: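 Jurkat cells at 2.5×10^5 cells/ml exposed to 100 μg/ml of 2–45-base A/C/G/T sequences (0 μg/ml control) for 48 h, 37° C, 5% CO2. Viability by MTT reduction read at 570 nm.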

caspase 3 [4] = assay: Active caspase 3 by FITC-conjugated antibody flow cytometry; type: cell-based, human; settings: Jurkat, 72 h, 100 μg/ml, cytometric (FIG. 2A)
Description: as §1, §2

chimpanzee PBMCs = assay: Cytokine production by chimpanzee PBMC (ELISA); type: cell-based; settings: PBMC of 4 healthy chimpanzees, 100 μg/ml, 48 h
How it was run: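 PBMCs from 4 healthy chimpanzees (1×10^6 cells) were incubated 48 h at 37 °C, 5% CO2 with 100 μg/ml of each 6-base sequence. Supernatant IL-10, IL-12 (p70 plus free p40) and TNF-alpha were measured by ELISA. Values are fold increase over untreated control cells.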

[5] = test system: PC-3 human prostate cancer cells; assay: Inhibition of PC-3 cell proliferation (MTT); type: cell-based; settings: 100 μg/ml, 48 h, 5×10^5 cells/ml
Description: (§3) Cells were seeded in 6 (1 ml/well), 24 (0.5 ml/well) or 96 (0.1 ml/well) well flat-bottom microplates and were maintained at 37° C. in a 5% CO2 atmosphere. Unless stated otherwise, 2.5×10^5 cells/ml were incubated with 0 μg/ml (control) and 100 μg/ml (treated) of 2 to 45 base sequences containing A, C, G and T for 48 h.
(§4) Cell proliferation was measured using dimethylthiazol-diphenyl-tetrazolium (MTT) reduction (Mosman et al. J. Immunol. Methods 65:55, 1983). MTT was measured at a wavelength of 570 nm using a multiplate spectrophotometer reader (ELX800, Bio-TEK Instruments Inc., Winooski, Vt.).
PC-3 prostate cancer cells are a p53 mutated, androgen-independent human solid tumor model. PC-3 cells (5×10^5 cells/ml) were incubated with 3 and 6 base GT sequences (Table 8).

[6] = test system: A20 murine B leukemia cells; assay: Inhibition of A20 cell proliferation (MTT); type: cell-based; settings: 100 μg/ml, 48 h
Description: as §3, §4
A20 murine leukemia B cells are a suspension tumor model. A20 murine leukemia B cells were incubated with 6 base GT sequences (Table 19).

[7] = test system: human peripheral blood mononuclear cells; assay: Cytokine production by human PBMC (ELISA); type: cell-based; settings: PBMC of 7 healthy humans, 100 μg/ml, 48 h
How it was run: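 PBMC from 7 healthy donors, Ficoll-isolated; 1×10^6 cells incubated with 100 μg/ml oligonucleotide sequence for 48 h at 37 °C, 5% CO2. IL-1beta, IL-6, IL-10, IL-12 (p70 plus free p40) and TNF-alpha measured by ELISA in supernatant, expressed as fold increase over control cells.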

[8] = test system: LNCaP human prostate cancer cells; assay: Inhibition of LNCaP cell proliferation (MTT); type: cell-based; settings: 100 μg/ml, 48 h, 5×10^5 cells/ml
Description: as §3, §4
LNCaP prostate cancer cells are a TGF-beta 1 receptor negative, […], metastatic human solid tumor model. LNCaP cells (5×10^5 cells/ml) were incubated with 6 base GT sequences (Table 9).

[9] = test system: MCF-7 human breast cancer cells; assay: Inhibition of MCF-7 cell proliferation (MTT); type: cell-based; settings: 100 μg/ml, 48 h, 5×10^5 cells/ml
Description: as §3, §4
MCF-7 human breast cancer cells are a caspase 3 negative, estrogen-dependent human solid tumor model. MCF-7 cells (5×10^5 cells/ml) were incubated with 3 and 6 base GT sequences (Table 7).

rhesus monkey PBMCs = assay: Cytokine production by rhesus monkey PBMC (ELISA); type: cell-based; settings: PBMC of 4 healthy rhesus monkeys, 100 μg/ml, 48 h
How it was run: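 Peripheral blood mononuclear cells taken from 4 healthy rhesus monkeys were cultured at 1×10^6 cells with 100 μg/ml of each test sequence for 48 h at 37° C. under 5% CO2. Cytokine levels in 100 μl of supernatant were quantified in pg/ml by commercial ELISA and reported as fold increase over untreated control cells.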

[10] = test system: THP-1 human acute monocytic leukemia cells; assay: Inhibition of THP-1 cell proliferation (MTT); type: cell-based; settings: 100 μg/ml, 48 h, 1.6×10^6 cells/ml
Description: as §3, §4
THP-1 acute monocytic leukemia cells are a p53 null human suspension tumor model. THP-1 cells (1.6×10^6 cells/ml) were incubated with 6 base GT sequences (Table 10).

[11] = test system: HL-60 human promyelocytic leukemia cells; assay: Inhibition of HL-60 cell proliferation (MTT); type: cell-based; settings: 100 μg/ml, 48 h
Description: as §3, §4
HL-60 promyelocytic leukemia cells are a p53 mutated human suspension tumor model. HL-60 cells were incubated with 6 base GT sequences (Table 6).

[12] = test system: THP-1 human acute monocytic leukemia cells; assay: Cytokine production by THP-1 cells (ELISA); type: cell-based; settings: THP-1, 1×10^6 cells, 100 μg/ml, 48 h; for ↑ IL-12 (fold increase treated vs control cells): p70 complex and free p40
How it was run: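 1×10^6 cells exposed to 100 μg/ml of each oligonucleotide sequence for 48 h at 37° C in 5% CO2, unless stated otherwise. Cytokines quantified in culture supernatant by ELISA, IL-12 assay detecting both p70 and free p40; values are fold increase over untreated control cells.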

TTGTTTTTTTTG (unmodified DNA) [SEQ ID NO:83]
% at cells in apoptosis [1]: 16%
caspase 3 activity greater than in control cells (caspase 3 [2]): 60%
% INHIBITION of Jurkat human leukemia T cell proliferation [3]: 21%
proliferation, cell cycle arrest and apoptosis of Jurkat T cells (summary in words) [3]: inhibited proliferation of, induced cell cycle arrest in and induced apoptosis of Jurkat T cells
processing of inactive pro-caspase 3 to active caspase 3 (caspase 3 [4]): induced processing of inactive pro-caspase 3 to active caspase 3

GTGTGTTTGGT (unmodified DNA) [SEQ ID NO:81]
% at cells in apoptosis [1]: 23%
caspase 3 activity greater than in control cells (caspase 3 [2]): 77%
% INHIBITION of Jurkat human leukemia T cell proliferation [3]: 22%
proliferation, cell cycle arrest and apoptosis of Jurkat T cells (summary in words) [3]: inhibited proliferation of, induced cell cycle arrest in and induced apoptosis of Jurkat T cells
processing of inactive pro-caspase 3 to active caspase 3 (caspase 3 [4]): induced processing of inactive pro-caspase 3 to active caspase 3

TTTGTT [SEQ ID NO:23]
IL-10 fold increase: mean +/− SD (chimpanzee PBMCs): 1.5 +/− 0.6 fold increase
IL-12 fold increase: mean +/− SD (chimpanzee PBMCs): 12.9 +/− 8.2 fold increase
TNF-alpha fold increase: mean +/− SD (chimpanzee PBMCs): 9.0 +/− 5.5 fold increase
% INHIBITION of PC-3 human prostate cancer cell proliferation [5]: 14%
% INHIBITION of A20 murine B leukemia cell proliferation [6]: 5%
IL-1 beta fold increase: mean +/− SD [7]: 1.0 +/− 0.1 fold increase
IL-6 fold increase: mean +/− SD [7]: 11.8 +/− 9.0 fold increase
IL-10 fold increase: mean +/− SD [7]: 1.0 +/− 0.1 fold increase
IL-12 fold increase: mean +/− SD [7]: 1.1 +/− 0.3 fold increase
% INHIBITION of LNCaP human prostate cancer cell proliferation [8]: 14%
% INHIBITION of MCF-7 human breast cancer cell proliferation [9]: 7%
% INHIBITION of Jurkat human leukemia T cell proliferation [3]: 31%
IL-10 fold increase: mean +/− SD (rhesus monkey PBMCs): 1.0 +/− 0.1 fold increase
IL-12 fold increase: mean +/− SD (rhesus monkey PBMCs): 6.7 +/− 3.6 fold increase
TNF-alpha fold increase: mean +/− SD (rhesus monkey PBMCs): 4.4 +/− 3.8 fold increase
% INHIBITION of THP-1 human acute monocytic leukemia cell proliferation [10]: 8%
% INHIBITION of HL-60 human promyelocytic leukemia cell proliferation [11]: 13%
↑ IL-6 (fold increase treated vs control cells) [12]: 4.9x
↑ IL-12 (fold increase treated vs control cells) [12]: 3.5x

TGTGTG [SEQ ID NO:9]
IL-10 fold increase: mean +/− SD (chimpanzee PBMCs): 2.3 +/− 1.3 fold increase
IL-12 fold increase: mean +/− SD (chimpanzee PBMCs): 13.5 +/− 8.9 fold increase
TNF-alpha fold increase: mean +/− SD (chimpanzee PBMCs): 11.3 +/− 6.9 fold increase
% INHIBITION of PC-3 human prostate cancer cell proliferation [5]: 16%
% INHIBITION of A20 murine B leukemia cell proliferation [6]: 22%
IL-1 beta fold increase: mean +/− SD [7]: 1.2 +/− 0.4 fold increase
IL-6 fold increase: mean +/− SD [7]: 8.3 +/− 12.8 fold increase
IL-10 fold increase: mean +/− SD [7]: 1.0 +/− 0.1 fold increase
IL-12 fold increase: mean +/− SD [7]: 2.7 +/− 2.6 fold increase
% INHIBITION of LNCaP human prostate cancer cell proliferation [8]: −9%
% INHIBITION of MCF-7 human breast cancer cell proliferation [9]: 6%
% INHIBITION of Jurkat human leukemia T cell proliferation [3]: 37% and 36%
IL-10 fold increase: mean +/− SD (rhesus monkey PBMCs): 1.1 +/− 0.2 fold increase
IL-12 fold increase: mean +/− SD (rhesus monkey PBMCs): 10.6 +/− 4.2 fold increase
TNF-alpha fold increase: mean +/− SD (rhesus monkey PBMCs): 14.3 +/− 6.3 fold increase
% INHIBITION of THP-1 human acute monocytic leukemia cell proliferation [10]: 0%
% INHIBITION of HL-60 human promyelocytic leukemia cell proliferation [11]: 7%
↑ IL-6 (fold increase treated vs control cells) [12]: 4.0x
↑ IL-12 (fold increase treated vs control cells) [12]: 1.8x

GGTGGG [SEQ ID NO:24]
IL-10 fold increase: mean +/− SD (chimpanzee PBMCs): 2.9 +/− 1.5 fold increase
IL-12 fold increase: mean +/− SD (chimpanzee PBMCs): 14.3 +/− 9.1 fold increase
TNF-alpha fold increase: mean +/− SD (chimpanzee PBMCs): 11.9 +/− 7.0 fold increase
% INHIBITION of PC-3 human prostate cancer cell proliferation [5]: 26%
% INHIBITION of A20 murine B leukemia cell proliferation [6]: 9%
IL-1 beta fold increase: mean +/− SD [7]: 0.9 +/− 0.1 fold increase
IL-6 fold increase: mean +/− SD [7]: 15.9 +/− 14.9 fold increase
IL-10 fold increase: mean +/− SD [7]: 2.4 +/− 2.9 fold increase
IL-12 fold increase: mean +/− SD [7]: 2.3 +/− 1.6 fold increase
% INHIBITION of LNCaP human prostate cancer cell proliferation [8]: 17%
% INHIBITION of MCF-7 human breast cancer cell proliferation [9]: 41%
% INHIBITION of Jurkat human leukemia T cell proliferation [3]: 48%
IL-10 fold increase: mean +/− SD (rhesus monkey PBMCs): 1.0 +/− 0.1 fold increase
IL-12 fold increase: mean +/− SD (rhesus monkey PBMCs): 11.2 +/− 4.8 fold increase
TNF-alpha fold increase: mean +/− SD (rhesus monkey PBMCs): 14.5 +/− 5.4 fold increase
% INHIBITION of THP-1 human acute monocytic leukemia cell proliferation [10]: 6%
% INHIBITION of HL-60 human promyelocytic leukemia cell proliferation [11]: 18%
↑ IL-6 (fold increase treated vs control cells) [12]: 6.9x
↑ IL-12 (fold increase treated vs control cells) [12]: 3.7x
